Data taken from patent US20230085307A1, “PYRIDAZINONE COMPOUND AND HERBICIDE” (NISSAN CHEMICAL CORPORATION, priority 2019, published 2023).

Experiments:
velvetleaf [1] = assay: Test Example 4: herbicidal effect by soil treatment (Table 19, symbol M); type: in vivo, velvetleaf (Abutilon theophrasti); conditions: amount of applied herbicide 320 g/ha
Method in brief: (§1)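 Applied as a water-diluted emulsion, the compound was sprayed onto soil covering newly sown seeds. Evaluation came three weeks after application, in a greenhouse held at 25° C. to 30° C.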

southern crabgrass [2] = assay: Test Example 5: herbicidal effect by foliage application, plastic box (Table 20, symbol F); type: in vivo, southern crabgrass (Digitaria ciliaris); conditions: foliage application, 320 g/ha, evaluated three weeks after application
Method in brief: (§2)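 Sow seeds spot-wise in sterilized diluvial soil; cover with ~1.5 cm soil. Grow 14 days in greenhouse, 25° C. to 30° C. Spray foliage with emulsion diluted to predetermined amount. Rate effect after 3 weeks.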

blackgrass [3] = assay: Test Example 4: herbicidal effect by soil treatment (Table 19, symbol J); type: in vivo, blackgrass (Alopecurus myosuroides); conditions: amount of applied herbicide 320 g/ha
Method in brief: as §1

redroot pigweed [4] = assay: Test Example 5: herbicidal effect by foliage application, plastic box (Table 20, symbol N); type: in vivo, redroot pigweed (Amaranthus retroflexus); conditions: foliage application, 320 g/ha, evaluated three weeks after application
Method in brief: as §2

persian speedwell [5] = assay: Test Example 4: herbicidal effect by soil treatment (Table 19, symbol R); type: in vivo, Persian speedwell (Veronica persica); conditions: amount of applied herbicide 320 g/ha
Method in brief: as §1

windgrass [6] = assay: Test Example 5: herbicidal effect by foliage application, plastic box (Table 20, symbol L); type: in vivo, windgrass (Apera spica-venti); conditions: foliage application, 320 g/ha, evaluated three weeks after application
Method in brief: as §2

persian speedwell [7] = assay: Test Example 5: herbicidal effect by foliage application, plastic box (Table 20, symbol R); type: in vivo, Persian speedwell (Veronica persica); conditions: foliage application, 320 g/ha, evaluated three weeks after application
Method in brief: as §2

wild oat [8] = assay: Test Example 5: herbicidal effect by foliage application, plastic box (Table 20, symbol I); type: in vivo, wild oat (Avena fatua); conditions: foliage application, 320 g/ha, evaluated three weeks after application
Method in brief: as §2

blackgrass [9] = assay: Test Example 5: herbicidal effect by foliage application, plastic box (Table 20, symbol J); type: in vivo, blackgrass (Alopecurus myosuroides); conditions: foliage application, 320 g/ha, evaluated three weeks after application
Method in brief: as §2

chickweed [10] = assay: Test Example 4: herbicidal effect by soil treatment (Table 19, symbol P); type: in vivo, common chickweed (Stellaria media); conditions: amount of applied herbicide 320 g/ha
Method in brief: as §1

redroot pigweed [11] = assay: Test Example 4: herbicidal effect by soil treatment (Table 19, symbol N); type: in vivo, redroot pigweed (Amaranthus retroflexus); conditions: amount of applied herbicide 320 g/ha
Method in brief: as §1

velvetleaf [12] = assay: Test Example 5: herbicidal effect by foliage application, plastic box (Table 20, symbol M); type: in vivo, velvetleaf (Abutilon theophrasti); conditions: foliage application, 320 g/ha, evaluated three weeks after application
Method in brief: as §2

barnyard grass [13] = assay: Test Example 3: herbicidal effect by foliage application, Wagner pot (Table 18, symbol H); type: in vivo, barnyard grass (Echinochloa crus-galli)
Method in brief: (§3)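 Plants were sown in alluvial soil held under 0.1–0.5 cm standing water and grown 14 days in a greenhouse at 25–30 °C. An emulsifiable formulation, water-diluted to the set dose, was then sprayed onto the foliage, and effects were scored three weeks later using previously defined criteria.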

lambsquarters [14] = assay: Test Example 4: herbicidal effect by soil treatment (Table 19, symbol O); type: in vivo, lambsquarters (Chenopodium album); conditions: amount of applied herbicide 320 g/ha
Method in brief: as §1

wild oat [15] = assay: Test Example 4: herbicidal effect by soil treatment (Table 19, symbol I); type: in vivo, wild oat (Avena fatua); conditions: amount of applied herbicide 320 g/ha
Method in brief: as §1

windgrass [16] = assay: Test Example 4: herbicidal effect by soil treatment (Table 19, symbol L); type: in vivo, windgrass (Apera spica-venti); conditions: amount of applied herbicide 320 g/ha
Method in brief: as §1

lambsquarters [17] = assay: Test Example 5: herbicidal effect by foliage application, plastic box (Table 20, symbol O); type: in vivo, lambsquarters (Chenopodium album); conditions: foliage application, 320 g/ha, evaluated three weeks after application
Method in brief: as §2

barnyard grass [18] = assay: Test Example 5: herbicidal effect by foliage application, plastic box (Table 20, symbol H); type: in vivo, barnyard grass (Echinochloa crus-galli); conditions: foliage application, 320 g/ha, evaluated three weeks after application
Method in brief: as §2

chickweed [19] = assay: Test Example 5: herbicidal effect by foliage application, plastic box (Table 20, symbol P); type: in vivo, common chickweed (Stellaria media); conditions: foliage application, 320 g/ha, evaluated three weeks after application
Method in brief: as §2

Italian ryegrass [20] = assay: Test Example 5: herbicidal effect by foliage application, plastic box (Table 20, symbol K); type: in vivo, Italian ryegrass (Lolium multiflorum); conditions: foliage application, 320 g/ha, evaluated three weeks after application
Method in brief: as §2

false cleavers [21] = assay: Test Example 4: herbicidal effect by soil treatment (Table 19, symbol Q); type: in vivo, false cleavers (Galium spurium); conditions: amount of applied herbicide 320 g/ha
Method in brief: as §1

rice flat sedge = assay: Test Example 3: herbicidal effect by foliage application, Wagner pot (Table 18, symbol E); type: in vivo, rice flat sedge (Cyperus iria)
Method in brief: as §3

southern crabgrass [22] = assay: Test Example 4: herbicidal effect by soil treatment (Table 19, symbol F); type: in vivo, southern crabgrass (Digitaria ciliaris); conditions: amount of applied herbicide 320 g/ha
Method in brief: as §1

Chinese sprangletop = assay: Test Example 3: herbicidal effect by foliage application, Wagner pot (Table 18, symbol D); type: in vivo, chinese sprangletop (Leptochloa chinensis)
Method in brief: as §3

green foxtail [23] = assay: Test Example 5: herbicidal effect by foliage application, plastic box (Table 20, symbol G); type: in vivo, green foxtail (Setaria viridis); conditions: foliage application, 320 g/ha, evaluated three weeks after application
Method in brief: as §2

Italian ryegrass [24] = assay: Test Example 4: herbicidal effect by soil treatment (Table 19, symbol K); type: in vivo, Italian ryegrass (Lolium multiflorum); conditions: amount of applied herbicide 320 g/ha
Method in brief: as §1

green foxtail [25] = assay: Test Example 4: herbicidal effect by soil treatment (Table 19, symbol G); type: in vivo, green foxtail (Setaria viridis); conditions: amount of applied herbicide 320 g/ha
Method in brief: as §1

barnyard grass [26] = assay: Test Example 4: herbicidal effect by soil treatment (Table 19, symbol H); type: in vivo, barnyard grass (Echinochloa crus-galli); conditions: amount of applied herbicide 320 g/ha
Method in brief: as §1

false cleavers [27] = assay: Test Example 5: herbicidal effect by foliage application, plastic box (Table 20, symbol Q); type: in vivo, false cleavers (Galium spurium); conditions: foliage application, 320 g/ha, evaluated three weeks after application
Method in brief: as §2

[28] = amount of applied herbicide 320 g/ha

CCOc1ccccc1-c1sc2ccc(Cl)cc2c1-c1c(O)c(C)nn(C)c1=O [2-105]
M: velvetleaf, herbicidal effect rating (velvetleaf [1]): 3 (Herbicidal rate of 40% or more and less than 70%) | herbicidal effect on F: southern crabgrass (southern crabgrass [2]): 4 (Herbicidal rate of 70% or more and less than 90%) | J: blackgrass, herbicidal effect rating (blackgrass [3]): 0 (Herbicidal rate of 5% or less (almost no effect)) | herbicidal effect on N: redroot pigweed (redroot pigweed [4]): 5 (Herbicidal rate of 90% or more (almost completely withered)) | R: persian speedwell, herbicidal effect rating (persian speedwell [5]): 3 (Herbicidal rate of 40% or more and less than 70%) | herbicidal effect on L: windgrass (windgrass [6]): 0 (Herbicidal rate of 5% or less (almost no effect)) | herbicidal effect on R: persian speedwell (persian speedwell [7]): 5 (Herbicidal rate of 90% or more (almost completely withered)) | herbicidal effect on I: wild oat (wild oat [8]): 1 (Herbicidal rate of 5% or more and less than 20%) | herbicidal effect on J: blackgrass (blackgrass [9]): 0 (Herbicidal rate of 5% or less (almost no effect)) | P: chickweed, herbicidal effect rating (chickweed [10]): 3 (Herbicidal rate of 40% or more and less than 70%) | N: redroot pigweed, herbicidal effect rating (redroot pigweed [11]): 5 (Herbicidal rate of 90% or more (almost completely withered)) | herbicidal effect on M: velvetleaf (velvetleaf [12]): 5 (Herbicidal rate of 90% or more (almost completely withered)) | herbicidal effect on H (barnyard grass), rating 0-5 (barnyard grass [13]; 320 g/ha): 4 (Herbicidal rate of 70% or more and less than 90%) | O: lambsquarters, herbicidal effect rating (lambsquarters [14]): 4 (Herbicidal rate of 70% or more and less than 90%) | I: wild oat, herbicidal effect rating (wild oat [15]): 0 (Herbicidal rate of 5% or less (almost no effect)) | L: windgrass, herbicidal effect rating (windgrass [16]): 0 (Herbicidal rate of 5% or less (almost no effect)) | herbicidal effect on O: lambsquarters (lambsquarters [17]): 3 (Herbicidal rate of 40% or more and less than 70%) | herbicidal effect on H: barnyard grass (barnyard grass [18]): 0 (Herbicidal rate of 5% or less (almost no effect)) | herbicidal effect on P: chickweed (chickweed [19]): 5 (Herbicidal rate of 90% or more (almost completely withered)) | herbicidal effect on K: Italian ryegrass (Italian ryegrass [20]): 0 (Herbicidal rate of 5% or less (almost no effect)) | Q: false cleavers, herbicidal effect rating (false cleavers [21]): 4 (Herbicidal rate of 70% or more and less than 90%) | herbicidal effect on E (rice flat sedge), rating 0-5 (rice flat sedge; 320 g/ha): 3 (Herbicidal rate of 40% or more and less than 70%) | F: southern crabgrass, herbicidal effect rating (southern crabgrass [22]): 3 (Herbicidal rate of 40% or more and less than 70%) | herbicidal effect on D (Chinese sprangletop), rating 0-5 (Chinese sprangletop; 320 g/ha): 0 (Herbicidal rate of 5% or less (almost no effect)) | herbicidal effect on G: green foxtail (green foxtail [23]): 0 (Herbicidal rate of 5% or less (almost no effect)) | K: Italian ryegrass, herbicidal effect rating (Italian ryegrass [24]): 0 (Herbicidal rate of 5% or less (almost no effect)) | G: green foxtail, herbicidal effect rating (green foxtail [25]): 2 (Herbicidal rate of 20% or more and less than 40%) | H: barnyard grass, herbicidal effect rating (barnyard grass [26]): 3 (Herbicidal rate of 40% or more and less than 70%) | herbicidal effect on Q: false cleavers (false cleavers [27]): 5 (Herbicidal rate of 90% or more (almost completely withered))

CCCC(=O)Oc1c(C)nn(C)c(=O)c1-c1c(-c2ccc(OC)c(OC)c2)sc2ccc(Cl)cc12 [2-124]
M: velvetleaf, herbicidal effect rating (velvetleaf [1]): 0 (Herbicidal rate of 5% or less (almost no effect)) | herbicidal effect on F: southern crabgrass (southern crabgrass [2]): 0 (Herbicidal rate of 5% or less (almost no effect)) | J: blackgrass, herbicidal effect rating (blackgrass [3]): 0 (Herbicidal rate of 5% or less (almost no effect)) | herbicidal effect on N: redroot pigweed (redroot pigweed [4]): 2 (Herbicidal rate of 20% or more and less than 40%) | R: persian speedwell, herbicidal effect rating (persian speedwell [5]): 0 (Herbicidal rate of 5% or less (almost no effect)) | herbicidal effect on L: windgrass (windgrass [6]): 0 (Herbicidal rate of 5% or less (almost no effect)) | herbicidal effect on R: persian speedwell (persian speedwell [7]): 5 (Herbicidal rate of 90% or more (almost completely withered)) | herbicidal effect on I: wild oat (wild oat [8]): 0 (Herbicidal rate of 5% or less (almost no effect)) | herbicidal effect on J: blackgrass (blackgrass [9]): 0 (Herbicidal rate of 5% or less (almost no effect)) | P: chickweed, herbicidal effect rating (chickweed [10]): 0 (Herbicidal rate of 5% or less (almost no effect)) | N: redroot pigweed, herbicidal effect rating (redroot pigweed [11]): 0 (Herbicidal rate of 5% or less (almost no effect)) | herbicidal effect on M: velvetleaf (velvetleaf [12]): 1 (Herbicidal rate of 5% or more and less than 20%) | herbicidal effect on H: barnyard grass (barnyard grass [13]; [28]): 3 (Herbicidal rate of 40% or more and less than 70%) | O: lambsquarters, herbicidal effect rating (lambsquarters [14]): 3 (Herbicidal rate of 40% or more and less than 70%) | I: wild oat, herbicidal effect rating (wild oat [15]): 0 (Herbicidal rate of 5% or less (almost no effect)) | L: windgrass, herbicidal effect rating (windgrass [16]): 0 (Herbicidal rate of 5% or less (almost no effect)) | herbicidal effect on O: lambsquarters (lambsquarters [17]): 0 (Herbicidal rate of 5% or less (almost no effect)) | herbicidal effect on H: barnyard grass (barnyard grass [18]): 0 (Herbicidal rate of 5% or less (almost no effect)) | herbicidal effect on P: chickweed (chickweed [19]): 2 (Herbicidal rate of 20% or more and less than 40%) | herbicidal effect on K: Italian ryegrass (Italian ryegrass [20]): 0 (Herbicidal rate of 5% or less (almost no effect)) | Q: false cleavers, herbicidal effect rating (false cleavers [21]): 0 (Herbicidal rate of 5% or less (almost no effect)) | herbicidal effect on E: rice flat sedge (rice flat sedge; [28]): 0 (Herbicidal rate of 5% or less (almost no effect)) | F: southern crabgrass, herbicidal effect rating (southern crabgrass [22]): 1 (Herbicidal rate of 5% or more and less than 20%) | herbicidal effect on D: Chinese sprangletop (Chinese sprangletop; [28]): 1 (Herbicidal rate of 5% or more and less than 20%) | herbicidal effect on G: green foxtail (green foxtail [23]): 0 (Herbicidal rate of 5% or less (almost no effect)) | K: Italian ryegrass, herbicidal effect rating (Italian ryegrass [24]): 0 (Herbicidal rate of 5% or less (almost no effect)) | G: green foxtail, herbicidal effect rating (green foxtail [25]): 0 (Herbicidal rate of 5% or less (almost no effect)) | H: barnyard grass, herbicidal effect rating (barnyard grass [26]): 0 (Herbicidal rate of 5% or less (almost no effect)) | herbicidal effect on Q: false cleavers (false cleavers [27]): 0 (Herbicidal rate of 5% or less (almost no effect))
